Assay [1] addresses T1, Ras farnesyl transferase (Homo sapiens, UniProt P49354+P49356).
T1 construct: made in house
The assay can be described thus: in vitro inhibitory activity for Ras farnesyl transferase, H-Ras substrate. It is filed as biochemical. The method, then:
In the present experiment, Ras farnesyl transferase produced by genetic recombination techniques according to the improved Pompliano's method (Pompliano et al., Biochemistry, 1992, 31, 3800) was used, and Ras substrate(Ras-CVLS) protein described in Korean Patent Appln. No. 97-14409 was used after it has been purified according to the known method(see, Chung et al., Biochimica et Biophysica Acta, 1992, 278, 1129).
(§1) The enzyme reaction was performed in 50 μl of 50 mM Soduam HEPES buffer solution containing 25 mM of potassium chloride, 25 mM of magnesium chloride, 10 mM of DTT and 50 μM of zinc chloride. 1.5 μM of Ras substrate protein, 0.15 μM of tritium-farnesylpyrophosphate and 4.5 nM of farnesyl transferase were used.
(§2) More specifically, in the initial step, farnesyl transferase was added to the above buffer solution, reaction was maintained for 30 minutes at 37° C. and then the reaction was stopped by adding 1 ml of ethanol solution containing 1M HCl. The formed precipitates were adsorbed to GF/B filter using Hopper harvestor(Hopper #FH 225V) for filter-binding, washed with ethanol, and then radioactivity of the dried filter was measured using LKB β counter. Enzyme titer was measured in the unsaturated state of substrate where the concentrations of Ras substrate protein and farnesyl transferase have quantitative relationship. The compound according to the present invention dissolved in dimethyl sulfoxide(DMSO) was added to the reaction solution in an amount of less than 5% of the total reaction solution, and then the enzyme inhibitory activity thereof was measured. The enzyme inhibitory activity was represented by percentage of the amount of farnesyl incorporated into the Ras substrate protein in the presence of the test compound to that in the absence of the test compound. IC50 of the test compound was defined as the concentration at which 50% of the enzyme activity was inhibited.

Assay [2] deals with T1, Ras farnesyl transferase. The assay is described as follows: in vitro inhibitory activity for Ras farnesyl transferase, K-Ras substrate. It is filed as biochemical. The method, then:
In the present experiment, Ras farnesyl transferase produced by genetic recombination techniques according to the improved Pompliano's method (Pompliano et al., Biochemistry, 1992, 31, 3800) was used, […] Appln. No. 97-14409 was used after it has been purified according to the known method(see, Chung et al., Biochimica et Biophysica Acta, 1992, 278, 1129).
as §1, §2

The target in assay [3] is T2, Ras farnesyl transferase (Rattus norvegicus, UniProt Q02293+Q04631).
T2 construct: endogenous in cells; host or cells: Rat2 fibroblasts transformed with C-Harvey-Ras, or with H-Ras carrying the K-Ras C-terminal polybasic lysine domain
The assay is described as follows: in vivo (cellular) Ras farnesyl transferase inhibitory activity, Rat2 cells expressing C-Harvey-Ras. In kind it is cell-based. The method, then: (§3) In the present experiment, Rat2 cell line which expresses C-Harvey-Ras protein having transforming activity and Rat2 cell line(Korean patent application No. 97-14409) which is transformed with fused protein of H-Ras substituted with polybasic lysine domain at C-terminus of K-Ras were used. The experiment was performed by the modified Declue's method(Declue. J. E. et al., Cancer Research, 1991, 51, 712). Hereinafter, the experimental method will be described in more detail.
(§4) 3×10^5 cells of transformed Rat2 fibroblast cell line were sprayed on 60 mm cell cultivation dish and cultivated for 48 hours in a cell incubator at 37° C. and after 50% or more of density was reached, it was treated with the test compounds. The compound according to the present invention dissolved in dimethylsulfoxide(DMSO) was used. 1% concentration of dimethylsulfoxide was used in both control and test groups. After 4 hours from the treatment with the compound, methionine labeled with 150 μCi of radioactive isotope [^35S] per 1 ml of medium was added and after cultivating for 20 hours, the cells were washed with physiological saline water. The cells were lysed using 1 ml of cold cell lysis buffer solution(50 mM of Sodium HEPES buffer solution containing 5 mM of magnesium chloride, 1 mM of DTT, 1% NP 40, 1 mM of EDTA, 1 mM of PMSF, 2 μM of leupeptin, 2 μM of pepstatin A and 2 μM of antipain) and the supernatant wherein the cells were lysed was obtained by high-velocity centrifugation of 12,000 g×5 minutes. The amount of radioisotope in the supernatant was measured and standardized to obtain a quantitative result in immunoprecipitation reaction and then, Y13-259, a monoclonal antiboby specifically binding to Ras protein(Furth, M. E. et al., J. Virol, 1982, 43, 294) was added and reacted for 15 hours at 4° C. Protein A(combined with goat anti-murine imunoglobulin antibody)-agarose suspension was added to the solution and reacted for 1 hour at 4° C. and then, to remove the unspecific binding product, immunoprecipitates were washed with a buffer solution (50 mM Tris chloride buffer solution containing 50 mM of sodium chloride, 0.5% of sodium dioxycholate, 0.5% of NP 40 and 0.1% of SDS). The precipitates were added to a buffer solution for electrophoresis and boiled and then, electrophoresis was performed using 13.5% of SDS polyacrylamide gel. After electrophoresis, the gel was fixed and dried. Then, the gel was exposed to X-ray film, developed and printed. From the result of the experiment, intensities of band of protein combined with or without farnesyl of Ras protein were measured, and the concentration of the test compound inhibiting 50% of farnesyl binding was defined as CIC50, an in vivo Ras farnesyl transferase inhibitory activity.

Assay [4] concerns the target T2, Ras farnesyl transferase. The assay is described as follows: in vivo (cellular) Ras farnesyl transferase inhibitory activity, Rat2 cells transformed with H-Ras fused with polybasic lysine domain of K-Ras. It is filed as cell-based. On the procedure:
as §3, §4

Setting [5] is: recombinant Ras farnesyl transferase, H-Ras substrate, tritium-farnesylpyrophosphate, 30 minutes at 37° C., read-out: H-Ras IC50.
Where [6] appears, read: recombinant Ras farnesyl transferase, K-Ras substrate, read-out: K-Ras IC50.
Setting [7] is: Rat2 cell line expressing C-Harvey-Ras, concentration inhibiting 50% of farnesyl binding of Ras protein, read-out: H-Ras CIC50.
Setting [8] is: Rat2 cell line transformed with H-Ras substituted with polybasic lysine domain at C-terminus of K-Ras, concentration inhibiting 50% of farnesyl binding, read-out: K-Ras CIC50.

Where only a bound is given, the exact number is not on record here.

Turning to `CN1CCN(C(=O)c2cn(Cc3cncn3CC3CCN(C(=O)OC/C=C/c4ccccc4)CC3)cc2-c2cccc3ccccc23)CC1` [Compound 48], the IC50 at Ras farnesyl transferase [1] (setting [5]) amounted to 3.3 nM; on Ras farnesyl transferase [2] (setting [6]), 7 nM; on Ras farnesyl transferase [3] (setting [7]) it was 12.5 nM; on Ras farnesyl transferase [4] (setting [8]), 1000 nM.
Regarding `COCCN(C)C(=O)c1cn(Cc2cncn2CC2CCN(Cc3ccc(-c4ccccc4)cc3)CC2)cc1-c1cccc2ccccc12` [Compound 33], the IC50 on Ras farnesyl transferase [1] (setting [5]) is 5 nM; at Ras farnesyl transferase [2] (setting [6]), 10 to 100 nM; on Ras farnesyl transferase [3] (setting [7]), 10 to 100 nM; at Ras farnesyl transferase [4] (setting [8]) it was 1000 to 10000 nM.
Consider `O=C(c1ccn(Cc2cncn2CC2CCN(C(=O)OCc3ccccc3)CC2)c1)c1cccc2ccccc12` [Compound 36, 1-{1-[1-(Benzyloxycarbonyl)piperidin-4-yl]methyl-1H-imidazol-5-yl}methyl-3-(naphthalen-1-yl)carbonyl-1H-pyrrole], for which the IC50 at Ras farnesyl transferase [1] was 200 nM; at Ras farnesyl transferase [2], over 100000 nM; at Ras farnesyl transferase [3] it was 10000 nM; at Ras farnesyl transferase [4], 50000 nM.
On to `CC(=O)N1CCC(Cn2cncc2Cn2ccc(C(=O)c3cccc4ccccc34)c2)CC1` [Compound 37, 1-[1-(1-Acetylpiperidin-4-yl)methyl-1H-imidazol-5-yl]methyl-3-(naphthalen-1-yl)carbonyl-1H-pyrrole], for which the IC50 was 350 nM at Ras farnesyl transferase [1], 10000 to 100000 nM at Ras farnesyl transferase [2], 1000 to 10000 nM against Ras farnesyl transferase [3] and 10000 to 50000 nM at Ras farnesyl transferase [4].
With `COCCN(C)C(=O)c1cn(Cc2cncn2CC2CCN(C(=O)Cc3ccc(-c4ccccc4)cc3)CC2)cc1-c1cccc2ccccc12` [Compound 16, 1-{1-[1-(4-Biphenylacetyl)-piperidin-4-ylmethyl]-1H-imidazol-5-ylmethyl}-3-[N-(2-methoxyethyl)-N-methyl]carbamoyl-4-(naphthalen-1-yl)-1H-pyrrole], the IC50 at Ras farnesyl transferase [1] (setting [5]) fell in the range of 1 to 10 nM; at Ras farnesyl transferase [2] (setting [6]), 10 to 1000 nM; at Ras farnesyl transferase [3] (setting [7]) it was 10 to 100 nM; on Ras farnesyl transferase [4] (setting [8]) it was 1000 to 50000 nM.
For `CN1CCN(C(=O)c2cn(Cc3cncn3CC3CCN(C(=O)N(C)C)CC3)cc2-c2cccc3ccccc23)CC1` [Compound 53, 1-{1-[1-(N,N-Dimethylcarbamoyl)piperidin-4-yl]methyl-1H-imidazol-5-yl}methyl-3-(4-methylpiperazin-1-yl)carbonyl-4-(naphthalen-1-yl)-1H-pyrrole], the IC50 on Ras farnesyl transferase [1] (setting [5]) is 3 nM; on Ras farnesyl transferase [2] (setting [6]), 8.5 nM; on Ras farnesyl transferase [3] (setting [7]), 50 nM; at Ras farnesyl transferase [4] (setting [8]), 10000 to 50000 nM.
Consider `COCCN(C)C(=O)c1cn(Cc2cncn2CC2CCN(C(=O)OCC=C(C)C)CC2)cc1-c1cccc2ccccc12` [Compound 22], for which the IC50 at Ras farnesyl transferase [1] (setting [5]) is 9 nM; at Ras farnesyl transferase [2] (setting [6]) it was 20 nM; at Ras farnesyl transferase [3] (setting [7]), 10 to 100 nM; at Ras farnesyl transferase [4] (setting [8]) it was 1000 to 10000 nM.
Regarding `CN1CCN(C(=O)c2cn(Cc3cncn3CC3CCN(C(=O)CCc4ccccc4)CC3)cc2-c2cccc3ccccc23)CC1` [Compound 43, 3-(4-Methylpiperazin-1-yl)carbonyl-4-(naphthalen-1-yl)-1-{1-[1-(2-phenylethylcarbonyl)-piperidin-4-yl]methyl-1H-imidazol-5-yl}methyl-1H-pyrrole], the IC50 at Ras farnesyl transferase [1] (setting [5]) is 2 nM; at Ras farnesyl transferase [2] (setting [6]) it was 10 nM; on Ras farnesyl transferase [3] (setting [7]) it was 50 nM; on Ras farnesyl transferase [4] (setting [8]) it was 10000 to 50000 nM.
As for `CN1CCN(C(=O)c2cn(Cc3cncn3CC3CCN(Cc4ccc(Oc5ccccc5)cc4)CC3)cc2-c2cccc3ccccc23)CC1` [Compound 57, 3-(4-Methylpiperazin-1-yl)carbonyl-4-(naphthalen-1-yl)-1-{1-[1-(4-phenoxybenzyl)piperidin-4-yl]methyl-1H-imidazol-5-yl}methyl-1H-pyrrole], the IC50 was determined as 11 nM on Ras farnesyl transferase [1] (setting [5]), 10 nM on Ras farnesyl transferase [2] (setting [6]), 25 nM at Ras farnesyl transferase [3] (setting [7]) and 10000 nM at Ras farnesyl transferase [4] (setting [8]).
Consider `CN1CCN(C(=O)c2cn(Cc3cncn3CC3CCN(S(C)(=O)=O)CC3)cc2-c2cccc3ccccc23)CC1` [Compound 41, 3-(4-Methylpiperazin-1-yl)carbonyl-1-[1-(1-methylsulfonylpiperidin-4-yl)methyl-1H-imidazol-5-yl]methyl-4-(naphthalen-1-yl)-1H-pyrrole], for which the IC50 is 3 nM on Ras farnesyl transferase [1] (setting [5]), 10 nM on Ras farnesyl transferase [2] (setting [6]), 50 nM on Ras farnesyl transferase [3] (setting [7]) and 10000 to 50000 nM on Ras farnesyl transferase [4] (setting [8]).
As for `CS(=O)(=O)N1CCC(Cn2cncc2Cn2cc(C(=O)N3CCOCC3)c(-c3cccc4ccccc34)c2)CC1` [Compound 4, 1-[1-(1-Methylsulfonyl-piperidin-4-ylmethyl)-1H-imidazol-5-ylmethyl]-3-(morpholin-4-yl)carbonyl-4-(naphthalen-1-yl)-1H-pyrrole], the IC50 at Ras farnesyl transferase [1] (setting [5]) is 3.6 nM; at Ras farnesyl transferase [2] (setting [6]), 26 nM; on Ras farnesyl transferase [3] (setting [7]) it was 10 to 100 nM; at Ras farnesyl transferase [4] (setting [8]) it was 10000 to 50000 nM.
For the compound `CCCCCCC(=O)N1CCC(Cn2cncc2Cn2cc(C(=O)N(C)CCOC)c(-c3cccc4ccccc34)c2)CC1` [Compound 12, 1-[1-(1-Heptanoyl-piperidin-4-ylmethyl)-1H-imidazol-5-ylmethyl]-3-[N-(2-methoxyethyl)-N-methyl]carbamoyl-4-(naphthalen-1-yl)-1H-pyrrole], the IC50 was 1 to 10 nM on Ras farnesyl transferase [1] (setting [5]), 10 to 1000 nM at Ras farnesyl transferase [2] (setting [6]), 10 nM at Ras farnesyl transferase [3] (setting [7]) and 1000 to 50000 nM on Ras farnesyl transferase [4] (setting [8]).
`COCCN(C)C(=O)c1cn(Cc2cncn2CC2CCN(C(=O)c3csc(C(C)C)n3)CC2)cc1-c1cccc2ccccc12` [Compound 29]: the IC50 on Ras farnesyl transferase [1] (setting [5]) was 2.5 nM; at Ras farnesyl transferase [2] (setting [6]), 10 to 100 nM; at Ras farnesyl transferase [3] (setting [7]), 10 to 100 nM; at Ras farnesyl transferase [4] (setting [8]), 10000 to 50000 nM.
For the compound `CN1CCN(C(=O)c2cn(Cc3cncn3CC3CCN(C(=O)N(C)Cc4ccccc4)CC3)cc2-c2cccc3ccccc23)CC1` [Compound 52], the IC50 at Ras farnesyl transferase [1] (setting [5]) is 2.3 nM; on Ras farnesyl transferase [2] (setting [6]), 10 nM; at Ras farnesyl transferase [3] (setting [7]), 50 nM; on Ras farnesyl transferase [4] (setting [8]) it was 10000 to 50000 nM.
As for `COCCN(C)C(=O)c1cn(Cc2cncn2CC2CCN(C(=O)N3CCCc4ccccc43)CC2)cc1-c1cccc2ccccc12` [Compound 31, 3-[N-(2-Methoxyethyl)-N-methyl]carbamoyl-4-(naphthalen-1-yl)-1-{1-[1-(1,2,3,4-tetrahydroquinolin-1-ylcarbonyl)piperidin-4-ylmethyl]-1H-imidazol-5-ylmethyl}-1H-pyrrole], the IC50 on Ras farnesyl transferase [1] (setting [5]) is 4 nM; at Ras farnesyl transferase [2] (setting [6]), 20 nM; on Ras farnesyl transferase [3] (setting [7]) it was 10 to 100 nM; on Ras farnesyl transferase [4] (setting [8]) it was 10000 to 50000 nM.

The values are drawn from patent publication US6436960B1, “Farnesyl transferase inhibitors having a piperidine structure and process for preparation thereof” (LG Chemical Ltd., priority 1998, dated 2002).
